Activity calls are given as the source filed them. No cut-off for these calls is given here.

The results in this text go back to ChEMBL document CHEMBL4024707, “Using gene expression database to uncover biology functions of 1,4-disubstituted 1,2,3-triazole analogues synthesized via a copper (I)-catalyzed reaction” (Eur J Med Chem, 2017).

Data set [1] relates to Hep 3B2. Put plainly: Down regulation of PLEKHM1 expression in human Hep3B cells at 1 uM after 6 to 24 hrs by L1000 expression profiling method relative to control. The class given is functional.
The subject of data set [2] is Hep 3B2. Put plainly: Down regulation of PAPD7 expression in human Hep3B cells at 1 uM after 6 to 24 hrs by L1000 expression profiling method relative to control. It counts as functional.
Data set [3] has as its system Hep 3B2. Put plainly: Down regulation of PTK2B expression in human Hep3B cells at 1 uM after 6 to 24 hrs by L1000 expression profiling method relative to control. The class given is functional.
For data set [4], the system named is Hep 3B2. Put plainly: Growth inhibition of human Hep3B cells at 5 uM after 48 hrs in presence of curcumin by MTT assay. The class given is functional. Background: Formazan colour is commonly taken as a measure of viable cells.
Data set [5] concerns Hep 3B2. Put plainly: Down regulation of RTN2 expression in human Hep3B cells at 1 uM after 6 to 24 hrs by L1000 expression profiling method relative to control. It counts as functional.
The subject of data set [6] is Hep 3B2. Put plainly: Down regulation of ORC1 expression in human Hep3B cells at 1 uM after 6 to 24 hrs by L1000 expression profiling method relative to control. It counts as functional.
The subject of data set [7] is Hep 3B2. Put plainly: Growth inhibition of human Hep3B cells at 10 uM after 48 hrs in presence of curcumin by MTT assay. It counts as functional.
The test system of data set [8] is Hep 3B2. Put plainly: Down regulation of NVL expression in human Hep3B cells at 1 uM after 6 to 24 hrs by L1000 expression profiling method relative to control. It counts as functional.
Data set [9] concerns Hep 3B2. Put plainly: Down regulation of SHB expression in human Hep3B cells at 1 uM after 6 to 24 hrs by L1000 expression profiling method relative to control. The class given is functional.
The test system of data set [10] is Hep 3B2. Put plainly: Down regulation of FUT1 expression in human Hep3B cells at 1 uM after 6 to 24 hrs by L1000 expression profiling method relative to control. It counts as functional.
Data set [11] concerns Hep 3B2. Put plainly: Down regulation of GRB7 expression in human Hep3B cells at 1 uM after 6 to 24 hrs by L1000 expression profiling method relative to control. The class given is functional.
Data set [12] concerns Hep 3B2. Put plainly: Down regulation of PPP1R13B expression in human Hep3B cells at 1 uM after 6 to 24 hrs by L1000 expression profiling method relative to control. It counts as functional.
Data set [13] relates to Hep 3B2. Put plainly: Down regulation of PTPRC expression in human Hep3B cells at 1 uM after 6 to 24 hrs by L1000 expression profiling method relative to control. It counts as functional.
Data set [14] deals with Hep 3B2. Put plainly: Down regulation of ARL4C expression in human Hep3B cells at 1 uM after 6 to 24 hrs by L1000 expression profiling method relative to control. It counts as functional.
Data set [15] deals with Hep 3B2. Put plainly: Growth inhibition of human Hep3B cells at 20 uM up to 72 hrs by MTT assay. The class given is functional, cell-based.
Data set [16] has as its system Hep 3B2. Put plainly: Effect on total GSK3beta expression in human Hep3B cells assessed as ratio of GSKbeta to beta-actin level at 10 uM after 48 hrs by Western blot analysis. It counts as cell-based. The settings on record: hep 3b2, 48 h.
The test system of data set [17] is Hep 3B2. Put plainly: Up regulation of RPS6KA1 expression in human Hep3B cells at 1 uM after 6 to 24 hrs by L1000 expression profiling method relative to control. The class given is functional.
The subject of data set [18] is Hep 3B2. Put plainly: Down regulation of HIST2H2BE expression in human Hep3B cells at 1 uM after 6 to 24 hrs by L1000 expression profiling method relative to control. The class given is functional.
Data set [19] deals with Hep 3B2. Put plainly: Down regulation of PPOX expression in human Hep3B cells at 1 uM after 6 to 24 hrs by L1000 expression profiling method relative to control. It counts as functional.
Data set [20] deals with Hep 3B2. Put plainly: Down regulation of ZNF586 expression in human Hep3B cells at 1 uM after 6 to 24 hrs by L1000 expression profiling method relative to control. The class given is functional.
The subject of data set [21] is Hep 3B2. Put plainly: Down regulation of MMP2 expression in human Hep3B cells at 1 uM after 6 to 24 hrs by L1000 expression profiling method relative to control. The class given is functional.
The test system of data set [22] is Hep 3B2. Put plainly: Down regulation of PIK3CA expression in human Hep3B cells at 1 uM after 6 to 24 hrs by L1000 expression profiling method relative to control. It counts as functional.
The subject of data set [23] is Hep 3B2. Put plainly: Down regulation of FZD1 expression in human Hep3B cells at 1 uM after 6 to 24 hrs by L1000 expression profiling method relative to control. The class given is functional.
Data set [24] relates to Hep 3B2. Put plainly: Down regulation of FOS expression in human Hep3B cells at 1 uM after 6 to 24 hrs by L1000 expression profiling method relative to control. The class given is functional.
Data set [25] concerns Hep 3B2. Put plainly: Up regulation of CCND1 expression in human Hep3B cells at 1 uM after 6 to 24 hrs by L1000 expression profiling method relative to control. The class given is functional.
Data set [26] has as its system Hep 3B2. Put plainly: Down regulation of CD40 expression in human Hep3B cells at 1 uM after 6 to 24 hrs by L1000 expression profiling method relative to control. The class given is functional.
The subject of data set [27] is Hep 3B2. Put plainly: Cell cycle arrest in human Hep3B cells assessed as accumulation at G0/G1 phase at 2.5 uM after 72 hrs by propidium iodide staining based flow cytometry (reference value: 41.6 to 46.2%). It counts as functional. For orientation: In flow cytometry, cells or beads pass a laser one at a time.
For data set [28], the system named is Hep 3B2. Put plainly: Cell cycle arrest in human Hep3B cells assessed as accumulation at G0/G1 phase at 5 uM after 48 hrs by propidium iodide staining based flow cytometry (reference value: 39.7 to 40.4%). The class given is functional.
In data set [29] the test system is Hep 3B2. Put plainly: Cell cycle arrest in human Hep3B cells assessed as accumulation at G2/M phase at 40 uM after 48 hrs by propidium iodide staining based flow cytometry (reference value: 34.8 to […]%). It counts as functional.
In data set [30] the test system is Hep 3B2. Put plainly: Induction of autophagy in human Hep3B cells assessed as ratio of LC3-2 to beta actin level at 40 uM after 72 hrs in presence of curcumin by Western blot analysis. In general terms: Immunoblotting shows a protein as a band on a membrane.
The subject of data set [31] is Hep 3B2. Put plainly: Growth inhibition of human Hep3B cells at 10 uM up to 72 hrs by MTT assay. The class given is functional, cell-based.
Data set [32] concerns Hep 3B2. Put plainly: Cell cycle arrest in human Hep3B cells assessed as accumulation at G0/G1 phase at 5 uM after 24 hrs by propidium iodide staining based flow cytometry (reference value: 36.3 to 39.0%). It counts as functional.
For data set [33], the system named is Hep 3B2. Put plainly: Cell cycle arrest in human Hep3B cells assessed as accumulation at sub-G1 phase at 40 uM after 48 hrs by propidium iodide staining based flow cytometry (reference value: 1.5 to 6.5%). It counts as functional.
For data set [34], the system named is Hep 3B2. Put plainly: Induction of autophagy in human Hep3B cells at 40 uM after 72 hrs by acridine orange staining based flow cytometry (reference value: 1.1 to 4%). The class given is functional.
The test system of data set [35] is Hep 3B2. Put plainly: Cell cycle arrest in human Hep3B cells assessed as accumulation at G2/M phase at 40 uM after 24 hrs by propidium iodide staining based flow cytometry (reference value: 31.8 to […]%). It counts as functional.
The subject of data set [36] is Hep 3B2. Put plainly: Induction of autophagy in human Hep3B cells at 40 uM after 48 hrs by acridine orange staining based flow cytometry (reference value: 0.9 to 3%). The class given is functional.
Data set [37] relates to Hep 3B2. Put plainly: Cell cycle arrest in human Hep3B cells assessed as accumulation at G0/G1 phase at 10 uM after 72 hrs by propidium iodide staining based flow cytometry (reference value: 41.6 to 46.2%). The class given is functional.
In data set [38] the test system is Hep 3B2. Put plainly: Cell cycle arrest in human Hep3B cells assessed as accumulation at G0/G1 phase at 40 uM after 72 hrs by propidium iodide staining based flow cytometry (reference value: 41.6 to 46.2%). The class given is functional.

As to `O=C1COc2ccccc2N1Cc1cn(CCC2OCCO2)nn1`, the log2FC in the data set with Hep 3B2 [1] was -3.9025; in the data set with Hep 3B2 [2], -3.2796; in the data set on Hep 3B2 [3], -3.3744; in the data set on Hep 3B2 [5], -4.1606; with Hep 3B2 [6], -3.3272; in the data set on Hep 3B2 [8], -3.779. For the same molecule, the log2FC is listed as -3.2569 in the data set with Hep 3B2 [9]; -3.2524 in the data set on Hep 3B2 [10]; -4.419 in the data set on Hep 3B2 [11]; -3.1647 with Hep 3B2 [12]; -3.9957 in the data set with Hep 3B2 [13]; -3.744 in the data set with Hep 3B2 [14]. Besides, the log2FC is given as 3.2908 in the data set on Hep 3B2 [17]; -4.2274 in the data set with Hep 3B2 [18]; -3.7552 in the data set on Hep 3B2 [19]; -4.0824 with Hep 3B2 [20]; -4.0779 in the data set on Hep 3B2 [21]; -4.2586 in the data set with Hep 3B2 [22]. The log2FC in the data set with Hep 3B2 [23] is on record as -3.5324; with Hep 3B2 [24] it was -3.1627; in the data set on Hep 3B2 [25], 3.2544; in the data set on Hep 3B2 [26], -3.3087. For the same molecule, the values for the CI with Hep 3B2 [4] and in the data set on Hep 3B2 [7] were 0.92 and 0.89, respectively. The “growth inhibition (GI)” value in the data set on Hep 3B2 [15] was “Active”. For the same molecule, the Ratio in the data set with Hep 3B2 [16] is 0.8.
Regarding `COc1ccc(CNC(=O)Nc2ncc([N+](=O)[O-])s2)cc1`, the Activity is 42.3% with Hep 3B2 [27]; 38.5% in the data set with Hep 3B2 [28]; 41.6% in the data set on Hep 3B2 [29]; 32.5% in the data set with Hep 3B2 [32]; 8.9% with Hep 3B2 [33]; 23.3% in the data set with Hep 3B2 [34]. Besides, the Activity turned out to be 37.6% in the data set with Hep 3B2 [35], 7.7% with Hep 3B2 [36], 43.3% in the data set on Hep 3B2 [37] and 38.5% with Hep 3B2 [38]. Besides, the Ratio in the data set with Hep 3B2 [30] amounted to 2.6. Further, in the data set on Hep 3B2 [31], the “growth inhibition (GI)” value was “Active”.
